Like-named read-outs stand apart in the source and are kept apart here.
Experiments:
[1] = tested on: HIV-1 RTMDR; test: Multi-RTI-resistant HIV-1 RTMDR infection in TZM-bl cell line; format: cell-based; conditions: Human immunodeficiency virus 1, TZM-bl
[2] = tested on: HIV-1 NL4-3; test: microbe, parasite or virus in culture; format: cell-based; conditions: for EC50: Human immunodeficiency virus 1, NL43, TZM-bl
[3] = tested on: HIV-1 IIIB; test: Inhibition of HIV-1 IIIB replication in MT-2 cells; format: cell-based; conditions: Human immunodeficiency virus 1, IIIB
[4] = tested on: HIV-1 A17 (K103N/Y181C); test: Multi-RTI-resistant HIV-1 A17 replication in MT-2 cells; format: cell-based; conditions: Human immunodeficiency virus 1, MT2
[5] = tested on: HIV-1 NL4-3; conditions: NL4-3 in TZM-bl cell line; starred compounds, data were reported in ref [11]; cited from earlier work
[6] = tested on: TZM-bl cell line; conditions: cited from earlier work
[7] = tested on: HIV-1 IIIB; conditions: cited from earlier work
[8] = tested on: MT-2 cells; conditions: cited from earlier work
[9] = TZM-bl cell line, XTT assay, starred compounds, data were reported in ref [11]
[10] = IIIB in MT-2 cell line, starred compounds, data were reported in ref [11]
[11] = MT-2 cell line, XTT assay, starred compounds, data were reported in ref [11]

Cc1cc(/C=C/C#N)cc(C)c1Oc1ccc([N+](=O)[O-])c(Nc2ccc(C#N)cc2)n1 [11m, (E)-N-(4′-Cyanophenyl)-6-(4″-cyanovinyl-2″,6″-dimethyl)phenoxy-3-nitropyridin-2-amine]
EC50 [1]: 0.0148 ± 0.0024 µM

N#Cc1ccc(Nc2cc(Oc3ccc4cc(C#N)ccc4c3)c([N+](=O)[O-])cc2[N+](=O)[O-])cc1 [compound 17, 5-(6-Cyano-2-naphthoxy)-N^1-(4′-cyanophenyl)-2,4-dinitroaniline]
EC50 [2]: > 0.1 µM | EC50 ([3]; MT2): > 0.1 µM

Cc1cc(/C=C/C#N)cc(C)c1Oc1ccc(N)c(Nc2ccc(C#N)cc2)n1 [13m, (E)-N^2-(4′-Cyanophenyl)-6-(4″-cyanovinyl-2″,6″-dimethyl)phenoxypyridin-2,3-diamine]
EC50 [1]: 0.00059 ± 9e-05 µM | EC50 [4]: 0.2 ± 0.01 µM

N#Cc1ccc(Nc2cc([N+](=O)[O-])c(Oc3ccc4cc(C#N)ccc4c3Br)cc2N)cc1 [compound 20, 4-(1-Bromo-6-cyano-2-naphthoxy)-N^1-(4′-cyanophenyl)-5-nitrobenzene-1,2-diamine]
EC50 ([2]; NL4-3 in TZM-bl cell line): > 0.1 µM | EC50 ([3]; MT2, IIIB in MT-2 cell line): > 0.1 µM

Cc1cc(C#N)cc(C)c1Oc1ccc(N)c(Nc2ccc(C#N)cc2)n1 [compound 3, reference compound]
EC50 ([2]; NL4-3 in TZM-bl cell line): 0.00068 ± 3e-05 µM | EC50 [1]: 0.00096 ± 0.0003 µM

N#Cc1ccc(Nc2cc(Oc3ccc4cc(C#N)ccc4c3)c([N+](=O)[O-])cc2N)cc1 [compound 19, 4-(6-Cyano-2-naphthoxy)-N^2-(4′-cyanophenyl)-5-nitrobenzene-1,2-diamine]
EC50 ([2]; NL4-3 in TZM-bl cell line): > 0.1 µM | EC50 ([3]; MT2, IIIB in MT-2 cell line): > 0.1 µM

Cc1cc(C#CC2CC2)cc(C)c1Oc1ccc(N)c(Nc2ccc(C#N)cc2)n1 [13e, N^2-(4′-Cyanophenyl)-6-[4″-(2-cyclopropylethynyl)-2″,6″-dimethylphenoxy]pyridin-2,3-diamine]
EC50 [1]: 0.121 ± 0.0177 µM | EC50 [4]: > 10 µM

Cc1cc(C#CC(C)(C)O)cc(C)c1Oc1ccc([N+](=O)[O-])c(Nc2ccc(C#N)cc2)n1 [11d, N-(4′-Cyanophenyl)-6-[2″,6″-dimethyl-4″-(3-methylbut-3-ol-1-yn)phenoxy]-3-nitropyridin-2-amine]
SI (selective index = CC50/EC50) [5]: 1.09 | CC50 [6]: 45.2 µM | SI (selective index = CC50/EC50) [7]: 2.61 | CC50 [8]: 23.3 µM

CC(=O)CCc1cc(C)c(Oc2ccc(N)c(Nc3ccc(C#N)cc3)n2)c(C)c1 [13k, 6-[(4″-Butan-2-one)-2″,6″-dimethyl]phenoxy-N^2-(4′-cyanophenyl)pyridin-2,3-diamine]
EC50 [1]: 0.0032 ± 0.0008 µM | EC50 [4]: 0.73 ± 0.058 µM

C=CCc1cc(C)c(Oc2ccc(N)c(Nc3ccc(C#N)cc3)n2)c(C)c1 [13c, 6-(4″-Allyl-2″,6″-dimethyl)phenoxy-N^2-(4′-cyanophenyl)pyridin-2,3-diamine]
EC50 [1]: 0.0154 ± 0.0016 µM

Cc1cc(I)cc(C)c1Oc1ccc([N+](=O)[O-])c(Nc2ccc(C#N)cc2)n1 [11a, N^2-(4′-Cyanophenyl)-6-(2″,6″-dimethyl-4″-iodo)phenoxy-3-nitropyridin-2-amine]
EC50 [1]: 0.0943 ± 0.009 µM | EC50 [5]: 0.0607 ± 0.024 µM | SI (selective index = CC50/EC50) [5]: >675 | CC50 [6, 9]: > 41.1 µM | EC50 [7, 10]: 0.079 ± 0.002 µM | SI (selective index = CC50/EC50) [7, 10]: 283 | CC50 [8, 11]: 22.9 µM

Cc1cc(I)cc(C)c1Oc1ccc(N)c(Nc2ccc(C#N)cc2)n1 [13a, N^2-(4′-Cyanophenyl)-6-(2″,6″-dimethyl-4″-iodo)phenoxypyridin-2,3-diamine]
EC50 [1]: 0.00513 ± 0.00115 µM | EC50 [5]: 0.0076 ± 0.0023 µM | SI (selective index = CC50/EC50) [5]: 2200 | CC50 [6, 9]: 16.7 µM | EC50 [7, 10]: 0.054 ± 0.004 µM | SI (selective index = CC50/EC50) [7, 10]: 134 | CC50 [8, 11]: 7.24 µM

C#Cc1cc(C)c(Oc2ccc(N)c(Nc3ccc(C#N)cc3)n2)c(C)c1 [13f, N^2-(4′-Cyanophenyl)-6-(2″,6″-dimethyl-4″-ethynyl)phenoxypyridin-2,3-diamine]
EC50 [1]: 0.009 ± 0.002 µM | EC50 [4]: 1.43 ± 0.26 µM | EC50 [5]: 0.0067 ± 0.001 µM | SI (selective index = CC50/EC50) [5]: 1484 | CC50 [6, 9]: 9.94 µM | SI (selective index = CC50/EC50) [7, 10]: 221 | CC50 [8, 11]: 9.28 µM

C#Cc1cc(C)c(Oc2ccc([N+](=O)[O-])c(Nc3ccc(C#N)cc3)n2)c(C)c1 [11f, N^2-(4′-Cyanophenyl)-6-(2″,6″-dimethyl-4″-ethynyl)phenoxy-3-nitropyridin-2-amine]
EC50 [1]: 0.215 ± 0.033 µM | EC50 [5]: 0.111 ± 0.086 µM | SI (selective index = CC50/EC50) [5]: >469 | CC50 [6, 9]: > 52.1 µM | EC50 [7, 10]: 0.247 ± 0.04 µM | SI (selective index = CC50/EC50) [7, 10]: >405 | CC50 [8, 11]: > 100 µM

Cc1cc(C#CC2CC2)cc(C)c1Oc1ccc([N+](=O)[O-])c(Nc2ccc(C#N)cc2)n1 [11e, N-(4′-Cyanophenyl)-6-[4″-(2-cyclopropylethynyl)-2″,6″-dimethyl]phenoxy-3-nitro-pyridin-2-amine]
EC50 ([3]; MT2, IIIB in MT-2 cell line): > 3 µM

Cc1cc(/C=C/C#N)cc(C)c1Oc1ccc([N+](=O)[O-])c(Nc2ccc(C#N)cc2)c1 [12c, (E)-N^2-(4′-Cyanophenyl)-4-(4″-cyanovinyl-2″,6″-dimethyl)phenoxy-1-nitroaniline]
selectivity ratio ([2]; human): > 4690

Cc1cc(C#CC(C)(C)O)cc(C)c1Oc1ccc(N)c(Nc2ccc(C#N)cc2)n1 [13d, N^2-(4′-Cyanophenyl)-6-[2″,6″-dimethyl-4″-(3-methylbut-3-ol-1-yn)phenoxy]pyridin-2,3-di amine]
EC50 [5]: 0.241 ± 0.0147 µM | SI (selective index = CC50/EC50) [5]: 36 | CC50 [6]: 8.73 µM | EC50 [7, 10]: 1.58 ± 0.097 µM | SI (selective index = CC50/EC50) [7]: 2.25 | CC50 [8]: 3.54 µM
